Results: patent US7959691B2, “Composition” (Innospec Deutschland GmbH, priority 2009, dated 2011)
Marks after values point to notes of the source that are not given here.

Experiments:
[1] = Iron content of Isopar L solutions stored at −30° C. (Example 2); assay type: physicochemical; conditions: for Iron content of Isopar L solutions at −30° C.: 5 wt % iron solutions in Isopar L stored at −30° C. at least one week, filtered, X-ray spectroscopy; for Iron content of Isopar L solutions at −30° C., purified sample: as E8, sample first purified by dissolving in minimum heptane, recrystallising out ferrocene, filtration, solvent removal
Experimental: The solubilities of the products of the above reactions were determined on a weight percent iron basis. […] Solutions at 5 wt % iron in Isopar L were prepared on this basis, sealed into vials and stored at −30° C. during at least one week.

[2] = Solubility in Isopar L at −30° C. during 120 hours, X-ray fluorescence (Example 4); assay type: physicochemical; conditions: nominal 5 wt % iron; for Solubility (% m/m Fe): 0.02 μm filtration
Experimental: The solubility of the isolated samples was determined in Isopar L solvent. For the isolated samples of compounds 7 and 8 the C/H/N analysis was used to indicate the iron content. For compounds 9 and 10 the theoretical iron content was assumed. Solutions were then prepared, at ambient temperatures or with slight warming as required, to a nominal iron content 5 wt % The samples were then sealed and immersed in a bath of ethylene glycol/water cooled and thermostatted to −30° C. during 120 hours.
The samples were then individually removed from the bath, taken up into a 10 cm^3 syringe then discharged to a second vial with filtration via a Whatman Anotop 25 0.02 μm in-line filter with Luer hub. Iron contents were then determined by X-ray fluorescence spectroscopy in an Oxford Instruments ED2000 Ag analyser. The analyser was calibrated against standards of ferrocene in toluene at iron concentrations of 0.5 through 3.0 wt % by 0.5 wt % intervals and against ferrocene in Isopar L 0.5 and 1.0 wt % (approximate ambient temperature solubility limit). Where required, dilution of sample materials was employed to bring the concentration within the range of the calibration.

[3] = Excerpt: Solubility testing was undertaken using the estimate of Fe content from C/H/N analysis. […] This procedure assumes the products below to contain substantially only C, H and Fe. Masses of product(s) sufficient to provide the required concentration of iron as condensation products were weighed into screw-cap vials and made up to 10.00 g with toluene. The samples were capped, shaken or swirled until homogenous then sealed using Parafilm™. The vials were then kept in an ethylene glycol/water filled bath held at −30° C. and periodically inspected for the appearance of solids or separation of liquid phases. After at least one week solids were separated by rapid filtration and soluble products isolated by removal of solvent under vacuum.
Following analysis of the solids, maximum and minimum solubilities were estimated from the mass balance.

[4] = Viscosity of 2.5 wt % iron solutions in toluene (Bohlin CVO rheometer); assay type: physicochemical; conditions: toluene solution at 2.5 wt % Fe
Experimental: Viscosities of 2.5 wt % iron solutions were determined using a Bohlin Instruments CVO rheometer using a 4° 40 mm cone and plate at shear rates of either 2 Pa or 0.5 Pa.

2,2-bis-(ferrocenyl)-pentane
Iron content of Isopar L solutions at −30° C. [1]: 2.62 wt %

3,3-bis-(ferrocenyl)-pentane
Iron content of Isopar L solutions at −30° C. [1]: 1.71 wt %

3,3-bis-(ferrocenyl)-butyl acetate
Iron content of Isopar L solutions at −30° C. [1]: 2.30 wt %

1,1-bis(ethylferrocenyl)pentane [Compound 9]
Appearance/ease of filtration [2]: Clear, filters well
Solubility (% m/m Fe) [2]: 5.0 % m/m Fe

CCCC(=O)CCC [Compound 3, Heptan-4-one]
Solubility in Toluene at −30° C., 2.5 wt % Fe [3]: Clear
Solubility in Toluene at −30° C., 5.0 wt % Fe [3]: Solids
Viscosity at −30° C. [4]: 5.1 mPas

CCCCC(C=O)CC (centres unmarked) [Compound 1, 2-Ethylhexanal]
Solubility in Toluene at −30° C., 2.5 wt % Fe [3]: Clear
Solubility in Toluene at −30° C., 5.0 wt % Fe [3]: Clear
solubility limit in toluene [3]: less than 3.2 wt %
Viscosity at −30° C. [4]: 5.1 to 6.4 mPas

3,3-bis-(ferrocenyl)-hexane
Iron content of Isopar L solutions at −30° C. [1]: 1.38 wt %

1,1-diferrocenylpentane [Compound 4]
Solubility in Toluene at −30° C., 2.5 wt % Fe [3]: Clear
Solubility in Toluene at −30° C., 5.0 wt % Fe [3]: Clear
Viscosity at −30° C. [4]: 5.4 mPas

1,1-bis-(ferrocenyl)-hexane
Iron content of Isopar L solutions at −30° C. [1]: 3.99 wt %
Iron content of Isopar L solutions at −30° C., purified sample [1]: 4.89* wt %

2,2-bis-(ferrocenyl)-heptane
Iron content of Isopar L solutions at −30° C. [1]: 3.29 wt %

2,2-bis-(ferrocenyl)-octane
Iron content of Isopar L solutions at −30° C. [1]: 2.72 wt %

1,1-bis-(ferrocenyl)-decane
Iron content of Isopar L solutions at −30° C. [1]: 4.41 wt %

1,1-bis(butylferrocenyl)pentane [Compound 10]
Appearance/ease of filtration [2]: Clear, but hard to filter
Solubility (% m/m Fe) [2]: 4.8 % m/m Fe

1,1-bis-(ferrocenyl)-octane
Iron content of Isopar L solutions at −30° C. [1]: 4.60 wt %
Iron content of Isopar L solutions at −30° C., purified sample [1]: 4.88* wt %

1,1-bis-(ferrocenyl)-nonane
Iron content of Isopar L solutions at −30° C. [1]: 4.96 wt %

CC(=O)CCC(C)=O [Compound 2, Acetonyl acetone]
Solubility in Toluene at −30° C., 2.5 wt % Fe [3]: Powder
Solubility in Toluene at −30° C., 5.0 wt % Fe [3]: Powder

1,1-bis-(ferrocenyl)-heptane
Iron content of Isopar L solutions at −30° C. [1]: 4.05 wt %
